Values quoted from earlier work in US20250000878A1 (priority 2014, published 2025).

Columns and labels:
[1] = system: patients with possible or probable AD; conditions: 0.1-0.2 mg twice daily, active group
[2] = system: patients with mild to moderate VaD; conditions: 100 mcg twice daily for 12 weeks
[3] = 0.2 mg pure huperzine A orally
beta amyloid = conditions: AD transgenic mice
[4] = in vivo

C/C=C1\[C@H]2C=C(C)C[C@]1(N)c1ccc(=O)[nH]c1C2 [Huperzine A]
proportion of patients with a four point improvement on the ADAS-cog [1]: 56%
cognitive function [2]: significantly improved
terminal half life [3]: approximately 6 hours

Cn1c(=O)c2c(ncn2C)n(C)c1=O [Caffeine]
reduction of beta amyloid deposition, entorhinal cortex (beta amyloid): 46%
reduction of beta amyloid deposition, hippocampus (beta amyloid): 40%
half life [4]: 4 to 6 h
time to peak blood levels [4]: within one hour

C[C@]12CC[C@H](O)CC1=CC[C@@H]1[C@@H]2CC[C@]2(C)C(=O)CC[C@@H]12 [DHEA, dehydroepiandrosterone]
insulin resistance (elderly men and women; 50 mg per day, one year): significant improvement
reduction of visceral fat measured by MRI (elderly men and women; 50 mg per day, one year, mean age 70 years): about 10%
circulating cytokines TNF alpha and IL-6 (elderly men and women; vs placebo controls): significant decrease
